Measurements as given in patent US20090275555A1, “Substituted indole ligands for the ORL-1 receptor” (priority 2004, published 2009).
Where a name gives a salt, the structure may show the parent alone. Read-outs that look alike come from different tables or passages of the source.

Columns and labels:
[1] = target: ORL-1 receptor (Homo sapiens, UniProt P41146); assay: Receptor binding studies, radioligand [3H]-AcRYYRWK-NH2
Procedure: The receptor binding studies were carried out on 96-well plates; the incubation medium was Tris HCl pH 7.4 (4° C.) containing MgCl2 (5 mM), EGTA (0.2 mM), BSA (0.1%), with a final volume of 1.0 ml, using as radioligand [^3H]-AcRYYRWK-NH2 (Amersham, 103 Ci/mmol). The samples were incubated at 37° C. for 120 min. and were then filtered off via Whatman GF/B filters pre-treated with 0.2% polyethylenimine. The filters were washed three times with Tris HCl buffer pH 7.4 (4° C.). The radioactivity present on the filters was measured using a Packard Top Count microplate scintillation counter.

[2] = target: T1, ORL-1 receptor (Cavia porcellus, UniProt P47748); assay: Electrically stimulated guinea pig ileum (GPI) assay; type: cell-based
T1 construct: evaluated for ORL-1 functional activity in electrically stimulated guinea pig ileum; from tissue; host or cells: guinea pig ileum
Procedure: Compounds of the invention are evaluated for ORL-1 functional activity in electrically stimulated guinea pig ileum, in agreement with the experimental protocol described in Caló et. al., Br. J. Pharmacol. 129, 1183, (2000). The ORL-1 antagonist activity (pKb) is evaluated against the endogenous ORL-1 agonist N/OFQ.

[3] = ORL-1 receptor, radioligand [3H]-AcRYYRWK-NH2, read-out: Binding affinity Ki
[4] = electrically stimulated guinea pig ileum, against the endogenous ORL-1 agonist N/OFQ, read-out: Antagonist activity (GPI) pKb vs N/OFQ (converted)

Sequence of ORL-1 receptor (Homo sapiens, UniProt P41146) (P41146 whole entry): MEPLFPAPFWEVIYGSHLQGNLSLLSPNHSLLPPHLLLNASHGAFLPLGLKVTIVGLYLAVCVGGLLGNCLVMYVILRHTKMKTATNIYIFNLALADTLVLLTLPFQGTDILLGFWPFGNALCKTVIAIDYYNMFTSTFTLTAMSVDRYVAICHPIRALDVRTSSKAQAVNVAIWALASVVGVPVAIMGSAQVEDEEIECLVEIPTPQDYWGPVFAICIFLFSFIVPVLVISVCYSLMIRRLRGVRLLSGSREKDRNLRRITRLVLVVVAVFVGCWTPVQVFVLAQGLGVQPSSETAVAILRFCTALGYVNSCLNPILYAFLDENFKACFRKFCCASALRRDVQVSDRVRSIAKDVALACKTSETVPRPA
T1 sequence (P47748 whole entry): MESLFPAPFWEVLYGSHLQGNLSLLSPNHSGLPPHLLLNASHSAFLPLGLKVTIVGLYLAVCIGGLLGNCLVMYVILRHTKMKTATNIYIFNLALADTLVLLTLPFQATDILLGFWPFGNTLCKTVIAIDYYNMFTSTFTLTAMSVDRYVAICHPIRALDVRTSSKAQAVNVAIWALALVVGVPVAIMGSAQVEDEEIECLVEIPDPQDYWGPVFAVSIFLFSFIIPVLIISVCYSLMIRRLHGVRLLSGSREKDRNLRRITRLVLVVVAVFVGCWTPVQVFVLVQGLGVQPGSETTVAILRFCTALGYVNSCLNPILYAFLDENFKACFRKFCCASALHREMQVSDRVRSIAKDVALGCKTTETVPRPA

SMILES	Ki [1, 3]	Kb [2, 4]	Ki [1]	Kb [2]
O=C(c1[nH]c2ccccc2c1CN1CCC(c2c(Cl)cccc2Cl)CC1)N1CCN(CCCO)CC1 [Example 75, {3-[4-(2,6-Dichloro-phenyl)-piperidin-1-ylmethyl]-1H-indol-2-yl}-[4-(3-hydroxy-propyl)-piperaizn-1-yl]-methanone]	1.5 nM	3.02 nM		
Cc1cccc(C)c1C1CCN(Cc2c(C(=O)N3C[C@@H]4C[C@H]3CO4)[nH]c3ccccc23)CC1 [Example 96]	10 nM	1.95 nM		
Cc1cccc(C)c1C1CCN(Cc2c(C(=O)N3CCN(CCOCCO)CC3)[nH]c3ccccc23)CC1 [Example 97, {3-[4-(2,6-Dimethyl-phenyl)-piperidin-1-ylmethyl]-1H-indol-2-yl}-{4-[2-(2-hydroxy-ethoxy)-ethyl]-piperazin-1-yl}-methanone]			6.5 nM	1 nM
Cc1cccc(C)c1C1CCN(Cc2c(C(=O)N3CCC4(CCN(C)C4)C3)[nH]c3ccccc23)CC1 (stereo not drawn) [Example 109, {3-[4-(2,6-Dimethyl-phenyl)-piperidin-1-ylmethyl]-1H-indol-2-yl}-(7-methyl-2,7-diaza-spiro[4.4]non-2-yl)-methanone]	5.4 nM	1.23 nM		
NC(=O)Cn1c(-c2ccccc2)c(CN2CCC(c3c(Cl)cccc3Cl)CC2)c2ccccc21 [Example 143, 2-(3-[4-(2,6-Dichloro-phenyl)-piperidin-1-ylmethyl]-2-phenyl-indol-1-yl)-acetamide]	3.2 nM	2.24 nM		
NC(=O)Cn1c(C(=O)N2CCOCC2)c(CN2CCC(c3c(Cl)cccc3Cl)CC2)c2ccccc21 [Example 150, 2-[3-[4-(2,6-Dichloro-phenyl)-piperidin-1-ylmethyl]-2-(morpholine-4-carbonyl)-indol-1-yl]-acetamide hydrochloride]	8 nM			8.91 nM
CN1CCC(NC(=O)Cn2c(-c3ccccc3)c(CN3CCC(c4c(Cl)cccc4Cl)CC3)c3ccccc32)CC1 [Example 160, 2-{3-[4-(2,6-Dichloro-phenyl)-piperidin-1-ylmethyl]-2-phenyl-indol-1-yl}-N-(1-methyl-piperidin-4-yl)-acetamide]			0.7 nM	1.74 nM
CN1CCC(NC(=O)Cn2c(C(=O)N3CCOCC3)c(CN3CCC(c4c(Cl)cccc4Cl)CC3)c3ccccc32)CC1 [Example 161, 2-[3-[4-(2,6-Dichloro-phenyl)-piperidin-1-ylmethyl]-2-(morpholine-4-carbonyl)-indol-1-yl]-N-(1-methyl-piperidin-4-yl)-acetamide dihydrochloride]	8.2 nM	0.955 nM		
Cc1cccc(C)c1C1CCN(Cc2c(-c3ccccc3)n(CC(=O)NC3CCN(C)CC3)c3ccccc23)CC1 [Example 165, 2-{3-[4-(2,6-Dimethyl-phenyl)-piperidin-1-ylmethyl]-2-phenyl-indol-1-yl}-N-(1-methyl-piperidin-4-yl)-acetamide ditrifluoroacetate]	4.6 nM			4.17 nM
